Source: patent publication US8222218B2, “Cyclopropanated carbohydrates” (Seton Hall University, priority 2008, dated 2012)
Like-named read-outs stand apart in the source and are kept apart here.

What was measured:
[1] = tested on: metabotropic glutamate receptors; settings: background; cited from earlier work
[2] = background, previously made and tested; cited from earlier work
[3] = tested on: MES-induced seizures; assay: Maximal Electroshock Seizure (MES) test, mice; type: in vivo; settings: Mus musculus, ip, mice, i.p.
Summary of the method: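 Seizures were induced by a 60 Hz corneal current for 2 s (50 mA in CF1 mice, 150 mA in Sprague-Dawley rats). Mice received 30, 100 or 300 mg/kg i.p. in 0.5% methylcellulose and were tested at several intervals; rats received 30 mg/kg p.o. Protection means abolition of hind-limb tonic extension.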

[4] = tested on: metrazole-induced clonic seizures; assay: Subcutaneous Metrazole Seizure Threshold Test (scMET), mice; type: in vivo; settings: Mus musculus, sc, mice
Summary of the method: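 CF1 mice dosed with test compound at 30, 100 and 300 mg/kg; Sprague-Dawley rats at 50 mg/kg p.o. At compound TPE, metrazole at CD97 (85 mg/kg in mice) injected s.c. in the neck. Animals observed 30 min; endpoint is a 3-5 s clonic spasm episode.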

[5] = Acute toxicity, minimal motor impairment (rotorod), mice; type: in vivo; settings: mice, rotorod
Summary of the method: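 Mice placed on a rod rotating at 6 rpm; a compound is scored toxic when the animal falls off three times within 1 min. In rats, minimal motor deficit is scored as ataxia, an abnormal uncoordinated gait.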

[6] = biological target: T1, cloned, human D1 receptor (Homo sapiens, UniProt P21728); assay: Radioligand competition binding assay, [3H]SCH23390
T1 construct: expressed in transfected cells
Description: Receptor binding profiles were provided by the National Institute of Mental Health's Psychoactive Drug Screening Program, Contract # N01 MH32004 (NIMH PDSP) The NIMH PDSP is directed by Bryan L. Roth M. D., Ph.D. at the University of North Carolina at Chapel Hill and Project Officer Jamie Driscol at NIMH, Bethesda Md., USA. Protocols for receptor-based assays by the PDSP may be found on the website: http://pdsp.med.unc.edu/pdspw/binding.php and http://pdsp.med.unc.edu/pdspw/function.php (Apr. 30, 2008).
Radioligand competition binding assays were performed as previously described (Rothman, R. B., Baumann, M. H., Savage, J. E., Rauser, L., McBride, Hufeisen, S. J., Roth B. L. Circulation (2000) 102:2836-2841) for Compounds 7 and 16. Briefly, test compounds were dissolved to 10 mM in 100% DMSO, then diluted to the desired concentrations (spanning seven orders of magnitude) in Dopamine Binding Buffer (50 mM NaCl, 50 mM HEPES, 5 mM MgCl2, 0.5 mM EDTA, pH 7.4). Diluted test and reference compounds were added to wells containing radioligand ([^3H]SCH23390, 0.3 nM final concentration) and buffer, then membrane fractions from cells stably expressing cloned, human D1 or D5 receptors were added and binding was allowed to equilibrate at room temperature for 1.5 hours. At equilibrium, reactions were filtered (using a FilterMate 96-well harvester, PerkinElmer) onto GF-A glass fiber filters (Wallac) and allowed to dry. Meltilex scintillant (Wallac) was melted onto the dry filters, and then allowed to cool. Filters were then sealed in plastic bags and counted on a Wallac TriLux microbeta counter.
Raw data (dpm) representing total radioligand binding (i.e., specific+non-specific binding) were plotted as a function of the logarithm of the molar concentration of the competitor (i.e., test or reference compound). Non-linear regression of the normalized (i.e., percent radioligand binding compared to that observed in the absence of test or reference compound) raw data is performed in Prism 4.0 (GraphPad Software) using the built-in three parameter logistic model describing ligand competition binding to radioligand-labeled sites: y=bottom+[(top−bottom)/(1+10^x−logIC50)] where bottom equals the residual radioligand binding measured in the presence of 10 μM reference compound (i.e., non-specific binding) and top equals the total radioligand binding observed in the absence of competitor. The log IC50 (i.e., the log of the ligand concentration that reduces radioligand binding by 50%) is thus estimated from the data and used to obtain the Ki by applying the Cheng-Prusoff approximation: Ki=IC50/(1+[ligand]/KD) where [ligand] equals the assay radioligand concentration and KD equals the affinity constant of the radioligand for the target receptor.

T1 sequence (P21728 whole entry): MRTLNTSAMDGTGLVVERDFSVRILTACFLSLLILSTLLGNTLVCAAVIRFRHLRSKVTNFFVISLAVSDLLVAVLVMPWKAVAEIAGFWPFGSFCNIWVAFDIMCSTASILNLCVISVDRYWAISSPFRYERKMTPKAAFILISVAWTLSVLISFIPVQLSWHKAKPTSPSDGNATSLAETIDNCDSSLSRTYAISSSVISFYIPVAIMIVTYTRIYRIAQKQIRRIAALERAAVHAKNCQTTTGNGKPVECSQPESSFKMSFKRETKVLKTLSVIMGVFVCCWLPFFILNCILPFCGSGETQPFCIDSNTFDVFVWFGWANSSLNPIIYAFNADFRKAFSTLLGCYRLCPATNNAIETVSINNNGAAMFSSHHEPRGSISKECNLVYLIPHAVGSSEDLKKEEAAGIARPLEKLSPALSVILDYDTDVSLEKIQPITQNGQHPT

7-(hydroxyimino)cyclopropa[b]chromen-1a-carboxylate [Compound C]
agonist activity at metabotropic glutamate receptors [1]: active agonists

CNS(=O)(=O)OC[C@@]12OC[C@H]3OC(C)(C)O[C@H]3[C@@H]1OC(C)(C)O2 [A]
anticonvulsant activity [2]: moderate anticonvulsant activity

CC1(C)OC[C@@H]2O[C@@]3(COS(N)(=O)=O)OC(C)(C)O[C@H]3[C@@H]2O1 [B]
anticonvulsant activity [2]: moderate anticonvulsant activity

CCOC(=O)C1[C@H]2O[C@@H]3COC(C)(C)O[C@H]3C(=NO)[C@@H]12 (stereo partly drawn) [Compound 7, ethyl (4aR,5aS,6aR,7aS)-7-(hydroxyimino)-2,2-dimethylhexahydro-4H-cyclopropa[5,6]pyrano[3,2-d][1,3]dioxine-6-carboxylate]
responders at 30 mg/kg ([3]; 0.5 h, read-out: MES 30 0.5 h (animals protected/tested)): 0% | responders at 30 mg/kg ([3]; 4 h, read-out: MES 30 4 h (animals protected/tested)): 0% | responders at 100 mg/kg ([3]; 0.5 h, read-out: MES 100 0.5 h (animals protected/tested)): 0% | responders at 100 mg/kg ([3]; 4 h, read-out: MES 100 4 h (animals protected/tested)): 0% | responders at 300 mg/kg ([3]; 0.5 h, read-out: MES 300 0.5 h (animals protected/tested)): 0% | responders at 300 mg/kg ([3]; 4 h, read-out: MES 300 4 h (animals protected/tested)): 0% | responders at 30 mg/kg ([4]; 0.4 h, read-out: scMET 30 0.4 h (animals protected/tested)): 0% | responders at 30 mg/kg ([4]; 0.5 h, read-out: scMET 30 0.5 h (animals protected/tested)): 0% | responders at 100 mg/kg ([4]; 0.4 h, read-out: scMET 100 0.4 h (animals protected/tested)): 0% | responders at 100 mg/kg ([4]; 0.5 h, read-out: scMET 100 0.5 h (animals protected/tested)): 0% | responders at 300 mg/kg ([4]; 0.4 h, read-out: scMET 300 0.4 h (animals protected/tested)): 0% | responders at 300 mg/kg ([4]; 0.5 h, read-out: scMET 300 0.5 h (animals protected/tested)): 0% | TOX 30 0.5 h (animals toxic/tested) ([5]; 30 mg/kg, 0.5 h): 0/4 | TOX 30 4 h (animals toxic/tested) ([5]; 30 mg/kg, 4 h): 0/2 | TOX 100 0.5 h (animals toxic/tested) ([5]; 100 mg/kg, 0.5 h): 1/8 | TOX 100 4 h (animals toxic/tested) ([5]; 100 mg/kg, 4 h): 0/4 | TOX 300 0.5 h (animals toxic/tested) ([5]; 300 mg/kg, 0.5 h): 3/4 | TOX 300 4 h (animals toxic/tested) ([5]; 300 mg/kg, 4 h): 1/2 | Ki ([6]; D1 dopamine receptor, [3H]SCH23390 0.3 nM, Cheng-Prusoff): 6.23 µM | inhibition of the D1 dopamine receptor ([6]; radioligand competition binding): significant inhibition

CC1(C)O[C@@H]2[C@@H](CO[C@@]3(COS(N)(=O)=O)OC(C)(C)O[C@@H]23)O1 [topiramate]
anticonvulsant activity [2]: greater anticonvulsant activity
